In paper PMC8699473, “An Easily Expandable Multi-Drug LC-MS Assay for the Simultaneous Quantification of 57 Oral Antitumor Drugs in Human Plasma” (Cancers, 2021):

Legend:
[1] = Freeze-thaw stability in spiked pooled human plasma; format: physicochemical
[2] = Autosampler stability of ready for injection samples; format: physicochemical, human
[3] = parameters: method as in supplement references [1-55] as printed per drug; settings: minimum steady-state blood plasma concentration after multiple dose administration; ref supplement references [1-55] per drug; cited from earlier work

| SMILES | Freeze-Thaw Accuracy [%] ([1]; validation standard 2xLLOV) | Freeze-Thaw Accuracy [%] ([1]; validation standard LLOV) | Freeze-Thaw Accuracy [%] ([1]; validation standard MOV) | Freeze-Thaw Accuracy [%] ([1]; validation standard ULOV) | Autosampler (24h, 4°C) Accuracy [%] ([2]; validation standard 2xLLOV) | Autosampler (72h, 4°C) Accuracy [%] ([2]; validation standard 2xLLOV) | Autosampler (24h, 4°C) Accuracy [%] ([2]; validation standard LLOV) | Autosampler (72h, 4°C) Accuracy [%] ([2]; validation standard LLOV) | Autosampler (24h, 4°C) Accuracy [%] ([2]; validation standard MOV) | Autosampler (72h, 4°C) Accuracy [%] ([2]; validation standard MOV) | Autosampler (24h, 4°C) Accuracy [%] ([2]; validation standard ULOV) | Autosampler (72h, 4°C) Accuracy [%] ([2]; validation standard ULOV) | cmin [3] [ng/mL] |
| --- | --- | --- | --- | --- | --- | --- | --- | --- | --- | --- | --- | --- | --- |
| Cc1c(C(=O)Nc2ccc(N3C[C@@H](C)O[C@@H](C)C3)nc2)cccc1-c1ccc(OC(F)(F)F)cc1 [Sonidegib] | 97.9 | 103.7 | 96.5 | 99.0 | 101.5 | 101.9 | 109.3 | 100.0 | 99.4 | 101.1 | 101.3 | 98.1 | 890 |
| CS(=O)(=O)c1ccc(C(=O)Nc2ccc(Cl)c(-c3ccccn3)c2)c(Cl)c1 [Vismodegib] | 103.4 | 77.6 | 103.2 | 94.1 | 105.1 | 109.2 | 84.9 | 85.6 | 108.4 | 107.5 | 96.6 | 99.7 | 11367 |
| O=C(Nc1cnn2ccc(N3CCC[C@@H]3c3cc(F)ccc3F)nc12)N1CC[C@H](O)C1 [Larotrectinib] | 100.6 | 97.9 | 100.3 | 102.3 | 87.6 | 100.3 | 79.4 | 75.5 | 104.6 | 101.2 | 102.3 | 104.4 | 5.14 |
| COc1cc2nccc(Oc3ccc(NC(=O)C4(C(=O)Nc5ccc(F)cc5)CC4)cc3)c2cc1OC [Cabozantinib] | 99.6 | 90.2 | 102.2 | 95.0 |  | 103.4 | 92.0 | 94.0 | 105.6 | 103.5 | 98.7 |  | 1380 |
| C#Cc1cccc(Nc2ncnc3cc(OCCOC)c(OCCOC)cc23)c1 [Erlotinib] | 100.9 | 113.3 | 100.4 | 102.0 | 102.3 | 98.1 |  | 103.9 | 103.3 | 98.3 | 103.4 | 102.9 | 1011 |
| C[C@]12CC[C@H](O)CC1=CC[C@@H]1[C@@H]2CC[C@]2(C)C(c3cccnc3)=CC[C@@H]12 [Abiraterone] | 104.5 | 105.9 | 101.5 | 100.2 | 98.9 | 97.9 | 90.8 | 94.9 | 104.6 | 101.6 | 100.2 | 104.1 | 9.3 |
| CS(=O)(=O)CCNCc1ccc(-c2ccc3ncnc(Nc4ccc(OCc5cccc(F)c5)c(Cl)c4)c3c2)o1 [Lapatinib] | 96.0 | 86.5 | 102.3 | 94.7 | 99.4 | 102.1 | 92.7 | 94.4 | 103.2 | 101.5 | 99.7 | 98.8 | 780 |
| CCCS(=O)(=O)Nc1ccc(F)c(C(=O)c2c[nH]c3ncc(-c4ccc(Cl)cc4)cc23)c1F [Vemurafenib] | 98.2 | 101.9 | 97.5 | 99.2 | 103.5 | 102.3 | 112.7 | 109.4 | 99.5 | 101.8 | 104.1 | 99.4 | 39000 |
| CN(C)C(=O)c1cc2cnc(Nc3ccc(N4CCNCC4)cn3)nc2n1C1CCCC1 [Ribociclib] | 103.9 | 86.3 |  | 92.4 | 103.0 |  | 84.0 |  | 104.1 |  | 89.8 |  | 732 |
| COc1cc2ncnc(Nc3ccc(F)c(Cl)c3)c2cc1OCCCN1CCOCC1 [Gefitinib] | 97.6 | 92.4 | 97.8 | 97.1 | 102.3 | 98.5 | 91.6 | 90.7 | 105.6 | 102.2 | 96.7 | 97.0 | 291 |
| CN(C)C/C=C/C(=O)Nc1cc2c(Nc3ccc(F)c(Cl)c3)ncnc2cc1O[C@H]1CCOC1 [Afatinib] | 100.0 | 93.5 | 96.1 | 95.0 | 103.2 | 99.3 | 91.7 | 83.0 | 102.6 | 103.4 | 98.7 | 99.3 | 14.4 |
| O=C(c1ccc(F)c(F)c1Nc1ccc(I)cc1F)N1CC(O)([C@@H]2CCCCN2)C1 [Cobimetinib] | 98.6 | 98.3 | 97.3 | 96.3 | 100.3 | 100.8 | 94.6 | 93.0 | 105.2 | 103.1 | 102.5 | 107.2 | 127 |
| COc1cc2nccc(Oc3ccc(NC(=O)Nc4cc(C)on4)c(Cl)c3)c2cc1OC [Tivozanib] | 96.8 | 90.0 | 99.9 | 98.1 | 101.5 | 102.7 | 94.0 | 95.0 | 104.6 | 102.4 | 101.6 | 103.1 | 80 |
| CCN(CC)CCNC(=O)c1c(C)[nH]c(/C=C2\C(=O)Nc3ccc(F)cc32)c1C [Sunitinib] | 102.8 | 117.0 | 99.1 | 100.3 | 113.8 | 111.0 | 113.8 | 119.4 | 111.8 | 114.3 | 113.4 | 119.5 | 51.6 |
| COC(=O)N[C@@H](C)CNc1nccc(-c2cn(C(C)C)nc2-c2cc(Cl)cc(NS(C)(=O)=O)c2F)n1 [Encorafenib] | 94.9 | 90.4 | 101.4 | 98.7 | 102.4 | 102.6 | 87.7 | 98.2 | 112.5 | 110.5 | 100.5 | 102.4 | 23 |
